For assay [1], the target named is T1, human 5-lipoxygenase (5-hLO) (Homo sapiens, UniProt P09917).
T1 sequence (P09917 1-674): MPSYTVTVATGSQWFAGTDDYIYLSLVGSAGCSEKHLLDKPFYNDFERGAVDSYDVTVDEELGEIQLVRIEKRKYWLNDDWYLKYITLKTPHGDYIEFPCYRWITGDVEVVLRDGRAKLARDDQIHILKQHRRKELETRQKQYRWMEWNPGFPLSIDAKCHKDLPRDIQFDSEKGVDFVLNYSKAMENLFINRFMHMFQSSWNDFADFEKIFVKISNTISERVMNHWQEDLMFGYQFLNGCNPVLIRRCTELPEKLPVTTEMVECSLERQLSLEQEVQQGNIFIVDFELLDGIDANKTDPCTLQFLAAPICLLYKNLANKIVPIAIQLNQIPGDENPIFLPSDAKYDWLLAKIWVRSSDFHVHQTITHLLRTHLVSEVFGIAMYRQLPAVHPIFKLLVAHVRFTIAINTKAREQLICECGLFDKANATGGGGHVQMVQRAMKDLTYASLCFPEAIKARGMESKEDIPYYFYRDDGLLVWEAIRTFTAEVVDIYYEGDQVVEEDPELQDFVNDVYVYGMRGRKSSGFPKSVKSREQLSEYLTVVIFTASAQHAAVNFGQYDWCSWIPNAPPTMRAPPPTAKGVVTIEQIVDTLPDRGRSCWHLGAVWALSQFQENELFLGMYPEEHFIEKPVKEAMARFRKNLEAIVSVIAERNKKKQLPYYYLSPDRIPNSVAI
The assay is described as follows: Lipoxygenase assay, 5-hLO. The following applies: ratio of IC50 values.

Assay [2] has as its system 12-hLO. The following applies: data from literature ref 20; cited from earlier work.
Assay [3] relates to human lung adenocarcinoma cells over human leukemic lymphoid cells. The assay is described as follows: Soft agar disk diffusion assay. The assay is classed as cell-based. The following applies: Table S4. A general note: Agar diffusion results depend on both activity and mobility in agar.
Another assay concerns 15-hLO. To be noted: read-out: previous IC50 15-hLO; previous work without Triton X100 ref 9; cited from earlier work.
Assay [4] concerns 12-hLO. To be noted: read-out: previous IC50 12-hLO; previous work without Triton X100 ref 9; cited from earlier work.

A value given as a limit tells only on which side of the number the result lay.

In general, IC50 refers to the concentration that inhibits the measured activity by half.

As to `CC1(C)CCC[C@]2(C)C3=CC4=CC(=O)C(=O)C=C4O[C@@]3(C)CC[C@@H]12` [Compound 5, puupehedione], the 12-hLO/5-hLO selectivity ratio in assay [1] was 4.
For the compound `CC1(C)CCC[C@]2(C)[C@H]3C=C4C(=CC(=O)[C@@H]4O)O[C@@]3(C)CC[C@@H]12` [Compound 3, 20-hydroxyhaterumadienone], in assay [1], the 12-hLO/5-hLO selectivity ratio is given as ~ 3 and the 15-hLO/5-hLO selectivity ratio is recorded as ~ 3.
On to `C[C@@H](c1cc2ccccc2s1)N(O)C(N)=O` [Compound 13, zileuton], for which the 12-hLO activity entry with 12-hLO [2] is “Active ^*, ^**”.
For the compound `CC1(C)CCC[C@]2(C)[C@H]3C=C4C=C(O)C(=O)C=C4O[C@@]3(C)CC[C@@H]12` [Compound 1, puupehenone], in assay [1], the 12-hLO/5-hLO selectivity ratio was 32 and the 15-hLO/5-hLO selectivity ratio is 9. In addition, in assay [3], the “selectivity against solid tumor cells” value is “modest selectivity”. In addition, the IC50 with 15-hLO is 0.8 µM. Also, in the assay with 12-hLO [4], the concentration for half-maximal inhibition (IC50) is 8.3 µM.
With `CC1=C(CC/C(C)=C/CC/C(C)=C/Cc2cc(O)ccc2O)C(C)(C)CCC1` [Compound 9, jaspaquinol], in assay [1], the 12-hLO/5-hLO selectivity ratio is given as more than 111 and the 15-hLO/5-hLO selectivity ratio came out at 42. In the assay on 15-hLO, the half-inhibitory concentration (IC50) was 0.3 µM. For the same compound, in the assay on 12-hLO [4], the IC50 is 4.5 µM.

Values taken from paper PMC2996101 (Journal of natural products, 2009).
